By IC50 is commonly meant the point on the concentration scale where inhibition reaches its midpoint.

This is an account of results in patent US8569344B2, “N-piperidinyl acetamide derivatives as calcium channel blockers” (Zalicus Pharmaceuticals Ltd., priority 2008, dated 2013).

The target in this assay is T1, human α1G T-type channels (Homo sapiens, UniProt O43497).
T1 construct: expressed in transfected cells; host or cells: HEK 293
In words: T-type calcium channel block, whole cell patch clamp in HEK cells (α1G). The format is cell-based. The following applies: HEK cells, patch clamp, mainly non-inactivated protocol; values above 10 μM shown as 10 μM, below 0.30 μM shown as 0.30 μM; read-out: T-type Calcium Channel Block α1G IC50. The method, then:
T-type calcium channel blocking activity was assayed in human embryonic kidney cells, HEK 293, stably transfected with the T-type calcium channel subunits. Briefly, cells were cultured in Dulbecco's modified eagle medium (DMEM) supplemented with 10% fetal bovine serum, 200 U/ml penicillin and 0.2 mg/ml streptomycin at 37° C. with 5% CO2. At 85% confluency cells were split with 0.25% trypsin/1 mM EDTA and plated at 10% confluency on glass coverslips. […] Fresh DMEM was supplied and the cells transferred to 28° C./5% CO2. Cells were incubated for 1 to 2 days prior to whole cell recording.
Standard patch-clamp techniques were employed to identify blockers of T-type currents. Briefly, previously described HEK cell lines stably expressing human α1G, α1H and α1I T-type channels were used for all the recordings (passage #: 4-20, 37° C., 5% CO2). Whole cell patch clamp experiments were performed using an Axopatch 200B amplifier (Axon Instruments, Burlingame, Calif.) linked to a personal computer equipped with pCLAMP software. Data were analyzed using Clampfit (Axon Instruments) and SigmaPlot 4.0 (Jandel Scientific). To obtain T-type currents, plastic dishes containing semi-confluent cells were positioned on the stage of a ZEISS AXIOVERT S100 microscope after replacing the culture medium with external solution (see below). Whole-cell patches were obtained using pipettes (borosilicate glass with filament, O.D.: 1.5 mm, I.D.: 0.86 mm, 10 cm length), fabricated on a SUTTER P-97 puller with resistance values of ˜5 MΩ (see below for internal solution).
In the non-inactivating protocol, the holding potential is set at −110 mV and with a pre-pulse at −100 mV for 1 second prior to the test pulse at −40 mV for 50 ms.
Test compounds were dissolved in external solution, 0.1-0.01% DMSO. After ˜10 min rest, they were applied by gravity close to the cell using a WPI microfil tubing. The “non-inactivated” pre-pulse was used to examine the resting block of a compound. The “inactivated” protocol was employed to study voltage-dependent block. […] Values are shown in μM and values above 10 μM are simply represented as 10 μM.

T1 sequence (O43497 whole entry): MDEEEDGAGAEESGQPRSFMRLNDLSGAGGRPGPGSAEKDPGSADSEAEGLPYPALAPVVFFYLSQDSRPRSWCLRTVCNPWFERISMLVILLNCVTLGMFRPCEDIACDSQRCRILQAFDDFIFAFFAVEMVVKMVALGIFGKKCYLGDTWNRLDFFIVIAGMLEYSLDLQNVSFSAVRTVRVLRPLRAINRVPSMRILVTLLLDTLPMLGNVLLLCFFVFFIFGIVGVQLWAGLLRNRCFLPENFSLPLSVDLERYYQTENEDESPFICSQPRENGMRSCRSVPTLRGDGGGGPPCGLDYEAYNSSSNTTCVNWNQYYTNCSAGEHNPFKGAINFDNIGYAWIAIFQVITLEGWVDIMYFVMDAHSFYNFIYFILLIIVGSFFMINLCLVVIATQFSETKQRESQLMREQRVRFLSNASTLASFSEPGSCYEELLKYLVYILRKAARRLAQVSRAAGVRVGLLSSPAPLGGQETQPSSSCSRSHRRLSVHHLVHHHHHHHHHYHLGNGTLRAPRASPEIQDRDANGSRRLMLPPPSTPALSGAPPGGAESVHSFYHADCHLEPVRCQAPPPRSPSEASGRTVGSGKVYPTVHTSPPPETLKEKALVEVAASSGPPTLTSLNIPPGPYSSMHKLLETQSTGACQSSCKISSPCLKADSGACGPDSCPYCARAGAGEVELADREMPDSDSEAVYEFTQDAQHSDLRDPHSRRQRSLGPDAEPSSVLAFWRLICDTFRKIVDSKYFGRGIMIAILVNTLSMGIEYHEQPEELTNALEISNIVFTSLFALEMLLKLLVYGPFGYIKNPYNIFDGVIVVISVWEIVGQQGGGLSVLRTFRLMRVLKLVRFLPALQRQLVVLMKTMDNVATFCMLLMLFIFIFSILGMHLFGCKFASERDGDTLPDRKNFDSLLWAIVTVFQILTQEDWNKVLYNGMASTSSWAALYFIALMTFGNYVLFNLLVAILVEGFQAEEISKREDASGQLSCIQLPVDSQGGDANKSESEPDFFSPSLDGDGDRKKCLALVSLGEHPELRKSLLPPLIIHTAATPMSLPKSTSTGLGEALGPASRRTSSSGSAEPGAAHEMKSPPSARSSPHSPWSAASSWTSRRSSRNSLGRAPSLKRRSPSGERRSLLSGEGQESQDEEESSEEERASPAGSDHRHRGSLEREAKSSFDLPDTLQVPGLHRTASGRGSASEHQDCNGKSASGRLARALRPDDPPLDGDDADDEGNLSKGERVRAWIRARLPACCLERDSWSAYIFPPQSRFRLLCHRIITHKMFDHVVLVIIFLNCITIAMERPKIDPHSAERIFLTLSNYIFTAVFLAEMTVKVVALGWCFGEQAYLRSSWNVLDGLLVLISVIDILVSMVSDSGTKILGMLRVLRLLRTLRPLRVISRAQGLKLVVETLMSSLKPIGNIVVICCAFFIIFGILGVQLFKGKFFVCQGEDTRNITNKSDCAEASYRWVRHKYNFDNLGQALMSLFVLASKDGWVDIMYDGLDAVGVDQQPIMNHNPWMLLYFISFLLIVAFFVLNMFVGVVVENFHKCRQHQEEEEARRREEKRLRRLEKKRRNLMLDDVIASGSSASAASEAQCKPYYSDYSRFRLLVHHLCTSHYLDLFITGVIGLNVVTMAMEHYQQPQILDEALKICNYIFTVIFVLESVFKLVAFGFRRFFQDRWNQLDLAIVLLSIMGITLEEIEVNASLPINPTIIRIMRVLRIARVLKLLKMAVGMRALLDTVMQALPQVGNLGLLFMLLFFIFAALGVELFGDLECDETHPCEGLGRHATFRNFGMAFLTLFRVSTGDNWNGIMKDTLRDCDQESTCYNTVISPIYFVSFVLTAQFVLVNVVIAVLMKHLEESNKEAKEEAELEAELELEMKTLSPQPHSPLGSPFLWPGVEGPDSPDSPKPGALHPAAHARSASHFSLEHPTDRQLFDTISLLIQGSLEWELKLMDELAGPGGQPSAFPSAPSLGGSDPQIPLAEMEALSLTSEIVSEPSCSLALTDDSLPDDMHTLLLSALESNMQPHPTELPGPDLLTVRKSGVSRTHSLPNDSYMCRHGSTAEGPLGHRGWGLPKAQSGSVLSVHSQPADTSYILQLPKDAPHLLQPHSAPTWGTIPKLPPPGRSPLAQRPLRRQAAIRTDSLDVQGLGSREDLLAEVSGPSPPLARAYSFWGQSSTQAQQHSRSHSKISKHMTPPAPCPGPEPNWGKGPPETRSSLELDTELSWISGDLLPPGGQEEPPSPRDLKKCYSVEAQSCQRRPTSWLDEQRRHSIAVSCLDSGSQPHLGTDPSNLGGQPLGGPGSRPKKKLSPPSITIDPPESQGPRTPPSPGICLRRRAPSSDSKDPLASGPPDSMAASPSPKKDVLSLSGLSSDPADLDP

As to `CC(C)(CO)NC(=O)CN1CCC(CNC(=O)c2cc(C(F)(F)F)cc(C(F)(F)F)c2)CC1` [Compound 430, N-((1-(2-(1-hydroxy-2-methyl-propan-2-ylamino)-2-oxoethyl)piperidin-4-yl)methyl)-3,5-bis(trifluoromethyl)benzamide], the IC50 is below 0.3 µM.
The same measure for `CC(C)(C)C(N)CN1CCC(CC(=O)NCc2cc(Cl)cc(Cl)c2)CC1` (stereo not drawn) [Compound 201, 2-(1-(2-amino-3,3-dimethylbutyl)piperidin-4-yl)-N-(3,5-dichlorobenzyl) acetamide]: above 10 µM; for `CC(C)(C)C(O)CN1CCC(CC(=O)NCc2ccc3c(c2)CCO3)CC1` (stereo not drawn) [Compound 176, N-((2,3-dihydrobenzofuran-5-yl)methyl)-2-(1-(2-hydroxy-3,3-dimethylbutyl)piperidin-4-yl)acetamide]: above 10 µM.
On to `O=C(NCC1CCN(C[C@@H]2CCCN2C(=O)C2CCCC2)CC1)c1cc(F)cc(C(F)(F)F)c1` [Compound 425, (S)-N-((1-((1-(cyclopentanecarbonyl)pyrrolidin-2-yl)methyl)piperidin-4-yl)methyl)-3-fluoro-5-(trifluoromethyl)benzamide], for which the IC50 was below 0.3 µM.
With `CC(C)(C)C(CN1CCC(CC(=O)NCc2cc(Cl)cc(Cl)c2)CC1)NS(C)(=O)=O` (stereo not drawn) [Compound 207, N-(3,5-dichhlorobenzyl)-2-(1-(3,3-dimethyl-2-(methylsulfonamido)butyl)piperidin-4-yl)acetamide], the IC50 is above 10 µM.
Regarding `O=C(NCC1CCN(CCNC(=O)C2CCCC2)CC1)c1cc(F)cc(F)c1` [Compound 395, N-((1-(2-(cyclopentanecarboxamido)ethyl)piperidin-4-yl)methyl)-3,5-difluoro-benzamide], the IC50 is above 10 µM.
For the compound `CC(C)(C)NC(=O)CN1CCC(CNC(=O)C2(c3ccccc3)CCCC2)CC1` [Compound 432, N-((1-(2-(tert-butylamino)-2-oxoethyl)piperidin-4-yl)methyl)-1-phenylcyclopentanecarboxamide], the IC50 is below 0.3 µM.
The value for `CC(C)(C)OC(=O)NCCN1CCC(CNC(=O)c2ccccc2C(F)(F)F)CC1` [Compound 53, tert-butyl 2-(4-((2-(trifluoromethyl)benzamido)methyl)piperidin-1-yl)ethylcarbamate] was above 10 µM; that for `NC1(C(=O)N2CCC(CC(=O)Nc3cc(C(F)(F)F)cc(C(F)(F)F)c3)CC2)CC1` [Compound 190, 2-(1-(1-aminocyclopropanecarbonyl)piperidin-4-yl)-N-(3,5-bis(trifluoromethyl)phenyl) acetamide] was above 10 µM.
The same measure for `NC1(C(=O)N2CCC(CNC(=O)c3cc(C(F)(F)F)cc(C(F)(F)F)c3)CC2)CCCCC1` [Compound 86, N-((1-(1-aminocyclohexanecarbonyl)piperidin-4-yl)methyl)-3,5-bis(trifluoromethyl) benzamide]: above 10 µM; for `N#CC1CCN(CC(=O)N2CCC(CNC(=O)c3cc(C(F)(F)F)cc(C(F)(F)F)c3)CC2)CC1` [Compound 259, N-((1-(2-(4-cyanopiperidin-1-yl)acetyl)piperidin-4-yl)methyl)-3,5-bis(trifluoromethyl)benzamide]: above 10 µM.
The same measure for `CN(CC1CCN(CCNC(=O)C(C)(C)C)CC1)C(=O)c1cc(F)cc(C(F)(F)F)c1` [Compound 412, 3-fluoro-N-methyl-N-((1-(2-pivalamidoethyl)piperidin-4-yl)methyl)-5-(trifluoromethyl)benzamide]: above 10 µM; for `CC(C)(C)C(O)CN1CCC(CC(=O)Nc2nc3ccccc3[nH]2)CC1` (stereo not drawn) [Compound 166, N-(1H-benzo[d]imidazol-2-yl)-2-(1-(2-hydroxy-3,3-dimethylbutyl)piperidin-4-yl)acetamide]: above 10 µM; for `O=C(NCC1CCN(C[C@@H]2CCCN2S(=O)(=O)C2CCC2)CC1)c1cc(F)cc(C(F)(F)F)c1` [Compound 419, (S)-N-((1-((1-(cyclobutylsulfonyl)pyrrolidin-2-yl)methyl)piperidin-4-yl)methyl)-3-fluoro-5-(trifluoromethyl)benzamide]: 1.63 µM.
Take `NC1(C(=O)N2CCC(CNC(=O)c3cc(C(F)(F)F)cc(C(F)(F)F)c3)CC2)CCCC1` [Compound 85, N-((1-(1-aminocyclopentanecarbonyl)piperidin-4-yl)methyl)-3,5-bis(trifluoromethyl) benzamide]: the IC50 is above 10 µM.
The same measure for `CC(C)(C)C(O)CN1CCC(CC(=O)NCc2cccc(OC(F)F)c2)CC1` (stereo not drawn) [Compound 175, N-(3-(difluoromethoxy)benzyl)-2-(1-(2-hydroxy-3,3-dimethylbutyl)piperidin-4-yl)acetamide]: above 10 µM; for `O=C(NCC1CCN(CCNC(=O)C2CCCC2)CC1)c1cccc(Cl)c1` [Compound 394, 3-chloro-N-((1-(2-(cyclopentanecarboxamido)ethyl)piperidin-4-yl)methyl)benzamide]: 4.61 µM; for `O=C(NCC1CCN(CCNC(=O)C2CCCC2)CC1)c1cc(F)cc(C(F)(F)F)c1` [Compound 402, N-((1-(2-(cyclopentanecarboxamido)ethyl)piperidin-4-yl)methyl)-3-fluoro-5-(trifluoromethyl)benzamide]: 0.54 µM.
The value for `Cc1cc(F)cc(C(=O)NCC2CCN(CCNC(=O)C3CCCC3)CC2)c1` [Compound 393, N-((1-(2-(cyclopentanecarboxamido)ethyl)piperidin-4-yl)methyl)-3-fluoro-5-methylbenzamide] was 6.04 µM; that for `CCOc1cc(OCC)cc(C(=O)NCC2CCN(CCNC(=O)C3CCCC3)CC2)c1` [Compound 403, N-((1-(2-(cyclopentanecarboxamido)ethyl)piperidin-4-yl)methyl)-3,5-diethoxybenzamide] was 1.11 µM.
The value for `O=C(NCC1CCN(CCNC(=O)C2CCCC2)CC1)c1cccc(OC(F)(F)F)c1` [Compound 401, N-((1-(2-(cyclopentanecarboxamido)ethyl)piperidin-4-yl)methyl)-3-(trifluoromethoxy)benzamide] was 0.91 µM; that for `CN(CC1CCN(CCNC(=O)NC(C)(C)C)CC1)C(=O)c1cc(F)cc(C(F)(F)F)c1` [Compound 411, N-((1-(2-(3-tert-butylureido)ethyl)piperidin-4-yl)methyl)-3-fluoro-N-methyl-5-(trifluoromethyl)benzamide] was above 10 µM; that for `O=C(Cc1cc(C(F)(F)F)cc(C(F)(F)F)c1)NCC1CCN(CCNC(=O)C2CCCC2)CC1` [Compound 408, N-(2-(4-((2-(3,5-bis(trifluoromethyl)phenyl)acetamido)methyl)piperidin-1-yl)ethyl)cyclopentanecarboxamide] was 3.36 µM.
Regarding `CC(C)(C)NC(=O)N1CCC[C@H]1CN1CCC(CNC(=O)c2cc(F)cc(C(F)(F)F)c2)CC1` [Compound 410, (S)-N-tert-butyl-2-((4-((3-fluoro-5-(trifluoromethyl)benzamido)methyl)piperidin-1-yl)methyl)pyrrolidine-1-carboxamide], the 50% inhibitory concentration (IC50) was 1.15 µM.
The same measure for `O=C(NCC1CCN(CCNC(=O)C2CCCC2)CC1)c1cc(F)cc(Cl)c1` [Compound 397, 3-chloro-N-((1-(2-(cyclopentanecarboxamido)ethyl)piperidin-4-yl)methyl)-5-fluoro-benzamide]: 1.78 µM; for `CC1(NC(=O)CN2CCC(CNC(=O)c3cc(C(F)(F)F)cc(C(F)(F)F)c3)CC2)CCCCC1` [Compound 431, N-((1-(2-(1-methylcyclohexylamino)-2-oxoethyl)piperidin-4-yl)methyl)-3,5-bis(trifluoromethyl)benzamide]: below 0.3 µM.
For `CC(C)(C)C(CN1CCC(CC(=O)NC(c2cccc(F)c2)c2cccc(F)c2)CC1)NS(C)(=O)=O` (stereo not drawn) [Compound 219, N-(bis(3-fluorophenyl)methyl)-2-(1-(3,3-dimethyl-2-(methylsulfonamido)butyl)piperidin-4-yl)acetamide], the IC50 was above 10 µM.
The value for `CC(C)S(=O)(=O)NC(CN1CCC(CC(=O)NCCc2c[nH]c3ccc(F)cc23)CC1)C(C)(C)C` (stereo not drawn) [Compound 206, 2-(1-(3,3-dimethyl-2-(1-methylethylsulfonamido)butyl)piperidin-4-yl)-N-(2-(5-fluoro-1H-3-yl)ethyl)acetamide] was above 10 µM.
The same measure for `Cc1cccc(C)c1NC(=O)CC1CCN(CCNS(=O)(=O)C(C)C)CC1` [Compound 433, N-(2,6-dimethylphenyl)-2-(1-(2-(1-methylethylsulfonamido)ethyl)piperidin-4-yl)acetamide]: above 10 µM; for `CS(=O)(=O)N1CCC[C@H]1CN1CCC(CNC(=O)c2cc(F)cc(C(F)(F)F)c2)CC1` [Compound 416, (S)-3-fluoro-N-((1-((1-(methylsulfonyl)pyrrolidin-2-yl)methyl)piperidin-4-yl)methyl)-5-(trifluoromethyl)benzamide]: above 10 µM.
